{
  "source": "patent US8772302B2",
  "about": "“GPR 119 agonists” (Cadila Healthcare Limited, priority 2009, dated 2014)",
  "tested_on": "Sprague Dawley rats",
  "test": "Feed intake in Sprague Dawley rats",
  "type": "in vivo, rat",
  "conditions": "cumulative feed intake vs vehicle",
  "from_the_text": "In Vivo Efficacy Studies: Feed Intake in Sprague Dawley Rats:\nSprague Dawley rats of 6-8 week age are used for this experiment they are kept for acclimatization in reversed light/dark cycle for 15 days. Animals will have free access to a standard chow diet and water during acclimatization period. After 15 days reversed light/dark cycle acclimatization animals are trained for fasting induced feed intake for 5 days till they show consistent feed intake. Grouping was done based on the monitored feed intake during the training days. On treatment day each group of animals are dosed with test compound or vehicle by appropriate routes of administration (orally or intraperitoneally). Exactly 30 min. after treatment, measured amount of standard chow diet is provided and recorded as O-min feed offered. Then subsequently 2, 4, 6 and 24 hour after O-min, feed intake is measured and the cumulative feed intakes are calculated. The change in cumulative feed intake as compared to vehicle treated control at each time point is calculated for test compound.",
  "data": [
    {"smiles": "Cc1c(Oc2ccc([C@H]3CO[S@@](=O)OC3)cc2)ncnc1OC1CCN(c2ncccn2)CC1", "note": "[Example 5, cis-5-(4-((5-methyl-6-((1-(pyrimidin-2-yl)piperidin-4-yl)oxy)pyrimidin-4-yl)oxy)phenyl)-1,3,2-dioxathiane 2-oxide]", "values": [
      {"measurement": "% reduction in food in take, 2 hour", "setting": "intraperitoneal, 25 mg/kg", "result": 35, "unit": "%"},
      {"measurement": "% reduction in food in take, 4 hour", "setting": "intraperitoneal, 25 mg/kg", "result": 17, "unit": "%"},
      {"measurement": "% reduction in food in take, 6 hour", "setting": "intraperitoneal, 25 mg/kg", "result": 21, "unit": "%"},
      {"measurement": "% reduction in food in take, 24 hour", "setting": "intraperitoneal, 25 mg/kg", "result": 8, "unit": "%"}
    ]},
    {"smiles": "Cc1c(Oc2ccc(C[C@H]3CO[S@@](=O)OC3)cc2)ncnc1OC1CCN(c2nc(C(C)C)no2)CC1", "note": "[Example 29, cis-5-(4-((6-((1-(3-isopropyl-1,2,4-oxadiazol-5-yl)piperidin-4-yl)oxy)-5-methylpyrimidin-4-yl)oxy)benzyl)-1,3,2-dioxathiane 2-oxide]", "values": [
      {"measurement": "% reduction in food in take, 2 hour", "setting": "intraperitoneal, 25 mg/kg", "result": 50, "unit": "%"},
      {"measurement": "% reduction in food in take, 4 hour", "setting": "intraperitoneal, 25 mg/kg", "result": 24, "unit": "%"},
      {"measurement": "% reduction in food in take, 6 hour", "setting": "intraperitoneal, 25 mg/kg", "result": 5, "unit": "%"},
      {"measurement": "% reduction in food in take, 24 hour", "setting": "intraperitoneal, 25 mg/kg", "result": 4, "unit": "%"}
    ]},
    {"smiles": "Cc1c(Oc2ccc(C[C@H]3CO[S@](=O)OC3)cc2)ncnc1OC1CCN(c2nc(C(C)C)no2)CC1", "note": "[Example 30, trans-5-(4-((6-((1-(3-isopropyl-1,2,4-oxadiazol-5-yl)piperidin-4-yl)oxy)-5-methylpyrimidin-4-yl)oxy)benzyl)-1,3,2-dioxathiane 2-oxide]", "values": [
      {"measurement": "% reduction in food in take, 2 hour", "setting": "intraperitoneal, 25 mg/kg", "result": 39, "unit": "%"},
      {"measurement": "% reduction in food in take, 4 hour", "setting": "intraperitoneal, 25 mg/kg", "result": 31, "unit": "%"},
      {"measurement": "% reduction in food in take, 6 hour", "setting": "intraperitoneal, 25 mg/kg", "result": 5, "unit": "%"},
      {"measurement": "% reduction in food in take, 24 hour", "setting": "intraperitoneal, 25 mg/kg", "result": 9, "unit": "%"}
    ]},
    {"smiles": "CCc1cnc(N2CCC(Oc3ncnc(Oc4ccc(C[C@H]5CO[S@@](=O)OC5)cc4)c3C)CC2)nc1", "note": "[Example 31, cis-5-(4-((6-((1-(5-ethylpyrimidin-2-yl)piperidin-4-yl)oxy)-5-methylpyrimidin-4-yl)oxy)benzyl)-1,3,2-dioxathiane 2-oxide]", "values": [
      {"measurement": "% reduction in food in take, 2 hour", "setting": "intraperitoneal, 25 mg/kg", "result": 28, "unit": "%"},
      {"measurement": "% reduction in food in take, 4 hour", "setting": "intraperitoneal, 25 mg/kg", "result": 34, "unit": "%"},
      {"measurement": "% reduction in food in take, 6 hour", "setting": "intraperitoneal, 25 mg/kg", "result": 28, "unit": "%"},
      {"measurement": "% reduction in food in take, 24 hour", "setting": "intraperitoneal, 25 mg/kg", "result": 9, "unit": "%"}
    ]},
    {"smiles": "Cc1c(Oc2ccc([C@H]3CO[S@@](=O)OC3)cc2)ncnc1OC1CCN(C(=O)Nc2ccc(Cl)cc2Cl)CC1", "note": "[Example 45, cis-N-(2,4-dichlorophenyl)-4-((5-methyl-6-(4-(2-oxido-1,3,2-dioxathian-5-yl)phenoxy)pyrimidin-4-yl)oxy)piperidine-1-carboxamide]", "values": [
      {"measurement": "% reduction in food in take, 2 hour", "setting": "oral, 50 mg/kg", "result": 28, "unit": "%"},
      {"measurement": "% reduction in food in take, 4 hour", "setting": "oral, 50 mg/kg", "result": 28, "unit": "%"},
      {"measurement": "% reduction in food in take, 6 hour", "setting": "oral, 50 mg/kg", "result": 16, "unit": "%"},
      {"measurement": "% reduction in food in take, 24 hour", "setting": "oral, 50 mg/kg", "result": 7, "unit": "%"}
    ]},
    {"smiles": "Cc1c(Oc2ccc([C@H]3CO[S@@](=O)OC3)cc2)ncnc1OC1CCN(C(=O)OC(C)C)CC1", "note": "[Example 47, cis-isopropyl 4-((5-methyl-6-(4-(2-oxido-1,3,2-dioxathian-5-yl)phenoxy)pyrimidin-4-yl)oxy)piperidine-1-carboxylate]", "values": [
      {"measurement": "% reduction in food in take, 2 hour", "setting": "oral, 50 mg/kg", "result": 23, "unit": "%"},
      {"measurement": "% reduction in food in take, 4 hour", "setting": "oral, 50 mg/kg", "result": 16, "unit": "%"},
      {"measurement": "% reduction in food in take, 6 hour", "setting": "oral, 50 mg/kg", "result": 3, "unit": "%"},
      {"measurement": "% reduction in food in take, 24 hour", "setting": "oral, 50 mg/kg", "result": 3, "unit": "%"}
    ]},
    {"smiles": "Cc1c(Oc2ccc(C3COS(=O)OC3)cc2)ncnc1OC1CCN(C(=O)OC(C)C)CC1", "note": "(stereo not drawn) [Example 48, trans-isopropyl 4-((5-methyl-6-(4-(2-oxido-1,3,2-dioxathian-5-yl)phenoxy)pyrimidin-4-yl)oxy)piperidine-1-carboxylate]", "values": [
      {"measurement": "% reduction in food in take, 2 hour", "setting": "oral, 50 mg/kg", "result": 32, "unit": "%"},
      {"measurement": "% reduction in food in take, 4 hour", "setting": "oral, 50 mg/kg", "result": 17, "unit": "%"},
      {"measurement": "% reduction in food in take, 6 hour", "setting": "oral, 50 mg/kg", "result": 17, "unit": "%"},
      {"measurement": "% reduction in food in take, 24 hour", "setting": "oral, 50 mg/kg", "result": 10, "unit": "%"}
    ]},
    {"smiles": "CC(C)(C)OC(=O)N1CCC(c2nc(COc3ccc(CC4COS(=O)OC4)cc3)cs2)CC1", "note": "(stereo not drawn) [Example 55, cis-tert-butyl 4-(4-((4-((2-oxido-1,3,2-dioxathian-5-yl)methyl)phenoxy)methyl)thiazol-2-yl)piperidine-1-carboxylate]", "values": [
      {"measurement": "% reduction in food in take, 2 hour", "setting": "oral, 50 mg/kg", "result": 33, "unit": "%"},
      {"measurement": "% reduction in food in take, 4 hour", "setting": "oral, 50 mg/kg", "result": 5.3, "unit": "%"}
    ]},
    {"smiles": "CCc1cnc(N2CCC(Oc3ccc(C[C@H]4CO[S@@](=O)OC4)cc3)CC2)nc1", "note": "[Example 59, cis-5-(4-((1-(5-ethylpyrimidin-2-yl)piperidin-4-yl)oxy)benzyl)-1,3,2-dioxathiane 2-oxide]", "values": [
      {"measurement": "% reduction in food in take, 2 hour", "setting": "oral, 50 mg/kg", "result": 23, "unit": "%"},
      {"measurement": "% reduction in food in take, 4 hour", "setting": "oral, 50 mg/kg", "result": 21, "unit": "%"},
      {"measurement": "% reduction in food in take, 6 hour", "setting": "oral, 50 mg/kg", "result": 15, "unit": "%"},
      {"measurement": "% reduction in food in take, 24 hour", "setting": "oral, 50 mg/kg", "result": 11, "unit": "%"}
    ]}
  ]
}
